Experimental data reported in US20200261391A1, “METHODS OF REDUCING THE RISK OF A CARDIOVASCULAR EVENT IN A STATIN-TREATED SUBJECT BY INCREASING SERUM AND PLASMA EPA AND DPA LEVELS” (Amarin Pharmaceuticals Ireland Limited, priority 2019, published 2020).

What was measured:
Assay type in all cases: in vivo, human
[1] = test system: patients with elevated triglyceride levels on statin therapy; assay: REDUCE-IT endpoints by EPA blood level tertile in the icosapent ethyl group compared to placebo; conditions: averaged upper EPA tertile vs below the upper tertile
Protocol: To assess the relationship between on-treatment hsCRP and the primary and key secondary endpoints, subgroup analyses were carried out as done for the ITT population for patients grouped according to values greater or equal to or less than […] at baseline and at 2 years. To assess the relationship between on-treatment serum EPA and the primary and key secondary endpoints, Kaplan-Meier (KM) curves were produced for AMR101 treated patients grouped into tertiles based on their values at year 1 and were compared with the placebo-treated patients.
This is a study aimed towards determining a relative risk reduction (RRR) between subjects stratified by EPA tertiles in the REDUCE-IT clinical trial described above in Example 1. Samples were obtained from those subjects and total EPA and AA levels in human serum and plasma samples were determined according at least to the methods described in Example 7.
(§1) The objective of this study is to assess the effects of administering icosapent ethyl at 4 g per day to patients from the REDUCE-IT trial of Example 1. More specifically, patients from the REDUCE-IT trial of Example 1 were stratified by their EPA levels into one of three tertiles. Following stratification, the objective was to determine if the RRR differs between patients having EPA levels in the three different tertiles. For the data collected as shown in Tables 38-43 and FIGS. 52, 53, and 56-59, the tertiles were established based on data collected from subjects at 1 year, 2 years, and last visit following icosapent ethyl administration compared to placebo. Data are presented as an average of 1 year, 2 year, […], and end of study values. The data was further analyzed use both pooled and unpooled statistically methods.

[2] = test system: patients with elevated triglyceride levels on statin therapy; assay: REDUCE-IT endpoints by pooled (icosapent ethyl and placebo) EPA blood level tertile
Description: as §1
(0.84 for lowest vs. placebo, 0.72 for middle vs. placebo, and 0.65 for highest vs. placebo).

[3] = test system: patients with elevated triglyceride levels on statin therapy; assay: REDUCE-IT endpoints by pooled (icosapent ethyl and placebo) EPA/AA ratio tertile
Description: as §1
Placebo and icosapent ethyl treated subjects were pooled and stratified based on EPA/AA tertiles with […], […], and the highest […]

[4] = test system: patients with elevated triglyceride levels on statin therapy; assay: REDUCE-IT endpoints by pooled (icosapent ethyl and placebo) EPA blood level tertile; conditions: FIG. 54; ITT pooled; tertiles ≤31.733, >31.733 to ≤120.175, >120.175 μg/mL
[5] = pooled, tertiles ≤31.305, >31.305 to ≤118.1, >118.1 μg/mL
[6] = FIG. 56, ITT pooled, tertiles ≤0.0857, >0.0857 to ≤0.4053, >0.4053
[7] = pooled, tertiles ≤0.084337, >0.084337 to ≤0.395187, >0.395187

Structure (SMILES): CC/C=C\C/C=C\C/C=C\C/C=C\C/C=C\CCCC(=O)O [EPA, eicosapentaenoic acid]
- primary endpoint HR, average achieved EPA >181 mg/L vs ≤181 mg/L [1]: 0.842
- primary composite endpoint RRR, highest vs lowest EPA tertile ([2]; FIG. 52, pooled): 43%
- primary composite endpoint RRR, highest vs middle EPA tertile ([2]; FIG. 52, pooled): 30%
- primary composite endpoint RRR, middle vs lowest EPA tertile ([2]; FIG. 52, pooled): 29%
- primary composite endpoint HR, middle vs lowest EPA tertile ([2]; FIG. 54, ITT pooled, tertiles ≤31.733, >31.733 to ≤120.175, >120.175 μg/mL): 0.79
- primary endpoint HR, highest vs. lowest tertile ([2]; pooled placebo and icosapent ethyl, tertiles ≤31.305, >31.305 to ≤118.1, >118.1 μg/mL): 0.65
- key secondary endpoint HR, highest vs. lowest tertile [2, 5]: 0.61
- key secondary endpoint HR, highest vs. middle tertile [2, 5]: 0.78
- key secondary endpoint HR, middle vs. lowest tertile [2, 5]: 0.78
- primary endpoint HR, highest vs. middle tertile [2, 5]: 0.80
- primary endpoint HR, middle vs. lowest tertile [2, 5]: 0.81
- primary endpoint HR, highest vs. lowest EPA/AA tertile [3, 6]: 0.63
- primary endpoint HR, middle vs. lowest EPA/AA tertile [3, 6]: 0.79
- key secondary endpoint HR, highest vs. lowest EPA/AA tertile [3, 7]: 0.57
- key secondary endpoint HR, highest vs. middle EPA/AA tertile [3, 7]: 0.75
- key secondary endpoint HR, middle vs. lowest EPA/AA tertile [3, 7]: 0.76
- primary endpoint HR, highest vs. lowest EPA/AA tertile [3, 7]: 0.64
- primary endpoint HR, highest vs. middle EPA/AA tertile [3, 7]: 0.84
- primary endpoint HR, middle vs. lowest EPA/AA tertile [3, 7]: 0.77
- primary composite endpoint HR, high vs lowest EPA tertile [4]: 0.64
